The values that follow come from PMC6523382 (Pharmaceutics, 2019).

Series [1] can be described thus: Ginsenoside concentrations in rat plasma after oral RGE. The class given is in vivo. As to the method:
Ginsenoside concentrations in RGE and plasma samples were analyzed using an Agilent 6470 triple quadrupole liquid chromatography–tandem mass spectrometry (LC–MS/MS) system (Agilent, Wilmington, DE, USA) equipped with an Agilent 1260 high performance liquid chromatography (HPLC) system, according to a previously published method. […] Aliquots (20 μL) of the supernatant were injected into the LC–MS/MS system for the analysis of ginsenosides. […] The solvent gradient program was as follows: (1) 0–0.5 min, 72% B; (2) 0.5–8.5 min, 84% B; (3) 8.5–19.0 min, 72%.
Quantification of a separated ginsenoside peak was performed at m/z 1131.6 → 365.1 for Rb1 (TR (retention time) 5.0 min), m/z 1101.6 → 335.1 for Rb2 (TR 6.4 min) and Rc (TR 5.2 min), m/z 969.9 → 789.5 for Rd (TR 8.2 min) and Re (TR 1.6 min), m/z 824 → 643.6 for Rg1 (TR = 1.7 min), m/z 807.5 → 365.1 for Rg3 (TR 12.3 min), m/z 661.5 → 203.1 for Rh1 (TR 3.2 min) and F1 (TR 3.9 min), m/z 587.4 → 407.4 for Rh2 (TR 11.5 min), m/z 807.5 → 627.5 for F2 (TR 5.3 min), m/z 645.5 → 203.1 for compound K (TR 9.5 min), m/z 425.4 → 109.1 for protopanaxadiol (TR 18.8 min), m/z 441.3 → 109.1 for protopanaxatriol (TR 2.9 min), and m/z 336.1 → 320 for berberine (internal standard, IS) (TR 3.7 min) in the positive ionization mode with collision energy (CE) of 15–65 eV.

Series [2] has as its system rat duodenal, jejunal, and ileal segments. In words: Intestinal absorptive permeability in Ussing chambers. It is filed as in vitro ADME. Here is the method: [31]. Briefly, duodenum, jejunum, and ileum segments were dissected and washed as described earlier. The duodenal, jejunal, and ileal segments mounted on the inserts of the Ussing chambers ([…], Holliston, MA, USA) were acclimatized with HBSS for 30 min. […] Aliquots (400 μL) of HBSS in the basal side were withdrawn at 0, 30, 60, 90, and 120 min, and the withdrawn samples were compensated with an equal volume of fresh, preheated HBSS. Carbogen gas (5% CO2/ 95% O2) was bubbled into the Ussing chambers at a rate of 150 drops/min during the experiment. […] For the generation of Na^+ gradient, rat duodenal, jejunal, and ileal segments mounted on the inserts of the Ussing chamber were pretreated with Na^+ free media comprising 10 mM HEPES, 5 mM Tris, 140 mM choline chloride, 2 mM KCl, 1 mM CaCl2, and 1 mM MgCl2 (pH7.4) for 30 min. […] A 100 μL aliquot of samples was transferred to 96-well plates and the fluorescence of Lucifer yellow was read directly in a fluorescence plate reader using a 485 nm excitation and an emission filter of 535 nm.

Series [3] is described as follows: Pharmacokinetics of metformin after intravenous injection in rats. As to conditions: rat; for Ae24h (fraction of dose excreted in urine for 24 h as parent form) / AUC(0-t) / AUC(0-inf) / MRT: metformin […] IV; for AUC(0-t) / AUC(0-inf) / C0 / MRT: plasma, iv; for AUC(0-t): AUC24h; for C0: C0, metformin […] IV.
Protocol: An aliquot (50 µL) of urine samples was stored at −80 °C for the analysis.
(§1) Aliquots of plasma (20 µL) and urine (50 µL) samples were vigorously mixed with 200 μL methanol containing 20 ng/mL propranolol (internal standard, IS) for 10 min.
(§2) Samples were eluted through a Synergy Polar RP column (2.0 mm × 150 mm, 4 µm particle size, Phenomenex, Torrence, CA, USA) using a mobile phase that consisted of methanol and water (70:30, v/v) with 0.1% formic acid at a flow rate of 0.2 mL/min. […] Pharmacokinetic parameters were evaluated from plasma concentration versus time curves by using non-compartment analysis of WinNonlin (version 5.1; Pharsights, Cary, NC, USA).
Series [4] in a line: Pharmacokinetics of metformin after oral administration in rats. To be noted: metformin 50 mg/kg PO, rat; for AUC(0-t): AUC24h.
Protocol: as §1, §2
Details of series [5]: method as in PMID 26869413. As to conditions: cited from earlier work.
[6] abbreviates: plasma, po, 50 mg/kg, 1WRA of RGE 1.5 g/kg/day.
[7] abbreviates: plasma, po, 50 mg/kg, SA of RGE 1.5 g/kg.

Read-outs that look alike come from different tables or passages of the source.

Consider `CC(C)=CCC[C@](C)(O[C@@H]1O[C@H](CO[C@@H]2O[C@H](CO)[C@@H](O)[C@H](O)[C@H]2O)[C@@H](O)[C@H](O)[C@H]1O)[C@H]1CC[C@]2(C)[C@@H]1[C@H](O)C[C@@H]1[C@@]3(C)CC[C@H](O[C@@H]4O[C@H](CO)[C@@H](O)[C@H](O)[C@H]4O[C@@H]4O[C@H](CO)[C@@H](O)[C@H](O)[C@H]4O)C(C)(C)[C@@H]3CC[C@]12C` [Rb1], for which, in series [1] (rat, plasma, 2 h after single oral administration of RGE (1.5 g/kg), read-out: Concentration in rat plasma, SA), the concentration at 2 h was found to be 14.3 ± 2.7 ng/mL. The concentration at 24 h in series [1] (rat, plasma, 24 h after last dose of 1-week repeated oral RGE (1.5 g/kg/day), read-out: Concentration in rat plasma, 1WRA) turned out to be 35.7 ± 1.9 ng/mL.

As for `CC(C)=CCC[C@](C)(O[C@@H]1O[C@H](CO[C@@H]2OC[C@H](O)[C@H](O)[C@H]2O)[C@@H](O)[C@H](O)[C@H]1O)[C@H]1CC[C@]2(C)[C@@H]1[C@H](O)C[C@@H]1[C@@]3(C)CC[C@H](O[C@@H]4O[C@H](CO)[C@@H](O)[C@H](O)[C@H]4O[C@@H]4O[C@H](CO)[C@@H](O)[C@H](O)[C@H]4O)C(C)(C)[C@@H]3CC[C@]12C` [Rb2], the “Concentration in rat plasma, SA” value in series [1] (2 h after single oral administration of RGE (1.5 g/kg)) was 6.3 ± 2.1 ng/mL. In series [1] (24 h after last dose of 1-week repeated oral RGE (1.5 g/kg/day)), the “Concentration in rat plasma, 1WRA” value was found to be 29.4 ± 1.5 ng/mL.

Turning to Lucifer yellow, the “Intestinal absorptive permeability (Papp), effect of RGE” value in series [2] was “not altered”.

One may read the AUC(0-t) as the area under the concentration-time curve up to a stated or last time point. A low value points to less exposure. Usually AUC(0-inf) stands for the area under the concentration-time curve extrapolated to infinity. Low values mean low exposure, high ones high exposure. One may read the MRT as a mean duration of stay, worked out from the concentration-time curve. One may read the Tmax as the time at which the peak concentration occurs. In general, Cmax refers to the highest concentration seen after dosing. For the compound `CN(C)C(=N)N=C(N)N` [metformin, Metformin], the “Ae24h (fraction of dose excreted in urine for 24 h as parent form)” value in series [3] (1WRA of RGE 1.5 g/kg/day) amounted to 79.56 ± 5.02%; in series [3] (Control) it was 80.07 ± 4.93%; in series [3] (SA of RGE 1.5 g/kg), 83.52 ± 5.72%; in series [4] (1WRA of RGE 1.5 g/kg/day), 66.29 ± 10.57 %; in series [4] (Control) it was 54.56 ± 3.26%; in series [4] (SA of RGE 1.5 g/kg), 53.04 ± 3.69%. Further, the AUC(0-t) in series [3] (1WRA of RGE 1.5 g/kg/day) was 980 ± 362 ng·h/mL; in series [3] (SA of RGE 1.5 g/kg), 1050 ± 237 ng·h/mL; in series [4] (setting [6]), 57600 ± 4990 ng·h/mL; in series [4] (plasma, po, 50 mg/kg, Control) it was 44300 ± 8310 ng·h/mL; in series [4] (setting [7]) it was 45200 ± 11100 ng·h/mL. The AUC(0-inf) in series [3] (1WRA of RGE 1.5 g/kg/day) was 986 ± 364 ng·h/mL; in series [3] (SA of RGE 1.5 g/kg) it was 1050 ± 239 ng·h/mL; in series [4] (setting [6]) it was 59000 ± 5170 ng·h/mL; in series [4] (plasma, po, 50 mg/kg, Control) it was 44800 ± 8090 ng·h/mL; in series [4] (setting [7]), 45700 ± 11200 ng·h/mL. Moreover, the C0 in series [3] (1WRA of RGE 1.5 g/kg/day) came to 1760 ± 438 ng/mL; in series [3] (SA of RGE 1.5 g/kg), 1670 ± 623 ng/mL. In addition, the mean residence time (MRT) in series [3] (1WRA of RGE 1.5 g/kg/day) was 0.85 ± 0.35 h; in series [3] (SA of RGE 1.5 g/kg) it was 0.81 ± 0.17 h; in series [4] (setting [6]), 4.64 ± 0.68 h; in series [4] (plasma, po, 50 mg/kg, Control), 4.85 ± 0.58 h; in series [4] (setting [7]), 4.69 ± 0.33 h. Besides, the Tmax in series [4] (1WRA of RGE 1.5 g/kg/day) came out at 2.00 ± 0.01 h; in series [4] (plasma, po, 50 mg/kg, Tmax, Control), 2.4 ± 0.89 h. For the same compound, the peak concentration (Cmax) came out at 9900 ± 1490 ng/mL in series [4] (setting [6]); 6310 ± 1680 ng/mL in series [4] (plasma, po, 50 mg/kg, Control); 6470 ± 2000 ng/mL in series [4] (setting [7]). In series [5], the “Fraction of dose absorbed in the duodenum” value is listed as “Approximately 20%”. The “Fraction of dose absorbed in the jejunum and ileum” value in series [5] was 60%.

As for `CO[C@@H]([C@H](O)[C@H](O)CO)[C@@H](O)C=O` [3-O-methyl-D-glucose], in series [2] (50 µM, duodenum, jejunum, ileum, SA and 1WRA groups vs control), the “Intestinal absorptive permeability (Papp), effect of RGE” value is “not affected”.
